Data reported in PubChem BioAssay AID651642 (Sanford-Burnham Center for Chemical Genomics, 2012).

Columns and labels:
[1] = system: HL-1; test: cardiomyocyte survival under oxidative or metabolic stress – cell-based, panel, H9c2 and HL-1, H2O2, 2-deoxyglucose, ATP luminescence, SAR follow-up (AID 651642)
[2] = system: H9c2; test: as above
[3] = H9c2/HL-1 cardiomyocyte 2-deoxyglucose damage, mean of runs, with 2-deoxyglucose, mean IC50 across panel
[4] = H9c2/HL-1 cardiomyocyte 2-deoxyglucose damage, run 1, with 2-deoxyglucose
[5] = H9c2/HL-1 cardiomyocyte 2-deoxyglucose damage, run 2, with 2-deoxyglucose
[6] = H9c2/HL-1 cardiomyocyte 2-deoxyglucose damage, run 3, with 2-deoxyglucose
[7] = H9c2/HL-1 cardiomyocyte 2-deoxyglucose damage, run 4, with 2-deoxyglucose
[8] = H9c2/HL-1 cardiomyocyte H2O2 oxidative damage, mean of runs, with H2O2, mean IC50 across panel
[9] = H9c2/HL-1 cardiomyocyte H2O2 oxidative damage, run 1, with H2O2
[10] = H9c2/HL-1 cardiomyocyte H2O2 oxidative damage, run 2, with H2O2
[11] = H9c2/HL-1 cardiomyocyte H2O2 oxidative damage, run 3, with H2O2
[12] = H9c2/HL-1 cardiomyocyte H2O2 oxidative damage, run 4, with H2O2

SMILES	IC50 [1, 3]	IC50 [1, 4]	IC50 [1, 5]	IC50 [1, 6]	IC50 [1, 7]	IC50 [1, 8]	IC50 [1, 9]	IC50 [1, 10]	IC50 [1, 11]	IC50 [1, 12]	IC50 [2, 3]	IC50 [2, 4]	IC50 [2, 5]	IC50 [2, 6]	IC50 [2, 7]	IC50 [2, 8]	IC50 [2, 9]	IC50 [2, 10]	IC50 [2, 11]	IC50 [2, 12]
COc1cc(-c2cc(C(=O)Nc3cccc(-c4nn[nH]n4)c3)c3ccccc3n2)cc(OC)c1OC	47.5 µM	27.6 µM	57.3 µM	48.6 µM	56.7 µM	25 µM	26.1 µM	28.8 µM	15.2 µM	29.8 µM	> 79 µM	> 79 µM	> 79 µM	> 79 µM	> 79 µM	20.9 µM	24.2 µM	24.3 µM	16.4 µM	18.6 µM
COc1cc(-c2cc(C(=O)NCC(=O)Nc3cccc(C(C)=O)c3)c3cc(Br)ccc3n2)cc(OC)c1OC	3.83 µM	2.44 µM	4.64 µM	3.4 µM	4.85 µM	3.34 µM	3.56 µM	3.69 µM	2.7 µM	3.41 µM	6.44 µM	8.22 µM	8.41 µM	4.43 µM	4.71 µM	1.26 µM	1.48 µM	1.49 µM	1.02 µM	1.06 µM
COc1cc(-c2cc(C(=O)Nc3cccc(C(C)=O)c3)c3ccc(Cl)cc3n2)cc(OC)c1OC	> 79 µM	> 79 µM	> 79 µM	> 79 µM	> 79 µM	2.26 µM	3.07 µM	3.46 µM	0.875 µM	1.65 µM	> 79 µM	> 79 µM	> 79 µM	> 79 µM	> 79 µM	–	3.39 µM	3.79 µM	> 79 µM	> 79 µM
COc1cc(-c2cc(C(=O)Nc3cccc(C(C)=O)c3)c3cc(F)ccc3n2)cc(OC)c1OC	> 79 µM	> 79 µM	> 79 µM	> 79 µM	> 79 µM	3.68 µM	2.49 µM	3.72 µM	3.31 µM	5.2 µM	> 79 µM	> 79 µM	> 79 µM	> 79 µM	> 79 µM	6.9 µM	5.38 µM	7.18 µM	4.58 µM	10.5 µM
COc1ccc2nc(-c3cc(OC)c(OC)c(OC)c3)cc(C(=O)Nc3cccc(C(C)=O)c3)c2c1	–	6.04 µM	6.84 µM	> 79 µM	> 79 µM	–	> 79 µM	> 79 µM	3.8 µM	8.57 µM	–	> 79 µM	27.9 µM	> 79 µM	> 79 µM	–	5.31 µM	8.25 µM	> 79 µM	2.94 µM
COc1ccc2c(c1OC)C(=O)N1c3ccccc3C(=O)N(Cc3ccc(F)cc3)C21 (centres undefined)	19 µM	6.14 µM	10.7 µM	17.7 µM	41.3 µM	> 79 µM	> 79 µM	> 79 µM	> 79 µM	> 79 µM	> 79 µM	> 79 µM	> 79 µM	> 79 µM	> 79 µM	–	> 79 µM	8.03 µM	> 79 µM	> 79 µM
COc1ccc2nc(-c3cc(OC)c(OC)c(OC)c3)cc(C(=O)NCC(=O)Nc3cccc(C(C)=O)c3)c2c1	2.9 µM	1.27 µM	3.22 µM	3.47 µM	3.64 µM	5.12 µM	4.48 µM	6.94 µM	4.08 µM	5 µM	2.63 µM	3.05 µM	3.53 µM	1.89 µM	2.03 µM	–	0.761 µM	0.868 µM	> 79 µM	0.324 µM
CCOC(=O)c1cccc(NC(=O)c2cc(-c3cc(OC)c(OC)c(OC)c3)nc3ccc(C)cc23)c1	–	2.03 µM	2.12 µM	> 79 µM	> 79 µM	–	> 79 µM	2.63 µM	1.79 µM	2.94 µM	> 79 µM	> 79 µM	> 79 µM	> 79 µM	> 79 µM	2.96 µM	2.98 µM	3.24 µM	2.59 µM	3.01 µM
COc1ccc2c(c1OC)C(=O)N1c3ccccc3C(=O)N(Cc3cccc(Cl)c3Cl)C21 (centres undefined)	1.48 µM	0.792 µM	0.807 µM	1.98 µM	2.35 µM	> 79 µM	> 79 µM	> 79 µM	> 79 µM	> 79 µM	8.9 µM	9.42 µM	12.2 µM	6.65 µM	7.38 µM	–	0.447 µM	0.739 µM	> 79 µM	> 79 µM
COc1cc(-c2cc(C(=O)Nc3cccc(C(C)=O)c3)c3cc(C)ccc3n2)cc(OC)c1OC	–	4.82 µM	5.03 µM	> 79 µM	> 79 µM	4.11 µM	4.85 µM	5.7 µM	2.78 µM	3.12 µM	> 79 µM	> 79 µM	> 79 µM	> 79 µM	> 79 µM	5.05 µM	4.03 µM	8.34 µM	3.55 µM	4.29 µM
CCOC(=O)c1cccc(NC(=O)c2cc(-c3cc(OC)c(OC)c(OC)c3)nc3cc(Cl)ccc23)c1	> 79 µM	> 79 µM	> 79 µM	> 79 µM	> 79 µM	–	> 79 µM	> 79 µM	6.51 µM	6.76 µM	> 79 µM	> 79 µM	> 79 µM	> 79 µM	> 79 µM	–	> 79 µM	31.1 µM	> 79 µM	> 79 µM
COc1cc(-c2cc(C(=O)NCC(=O)Nc3ccc(C(C)=O)cc3)c3cc(F)ccc3n2)cc(OC)c1OC	–	2.6 µM	3.39 µM	> 79 µM	> 79 µM	4.71 µM	3.18 µM	10.4 µM	0.441 µM	4.84 µM	> 79 µM	> 79 µM	> 79 µM	> 79 µM	> 79 µM	–	1.54 µM	2.4 µM	> 79 µM	> 79 µM
COc1ccc2c(c1OC)C(=O)N1c3ccccc3C(=O)N(Cc3c(Cl)cccc3Cl)C21 (centres undefined)	–	6.31 µM	6.5 µM	> 79 µM	> 79 µM	> 79 µM	> 79 µM	> 79 µM	> 79 µM	> 79 µM	> 79 µM	> 79 µM	> 79 µM	> 79 µM	> 79 µM	–	3.42 µM	3.73 µM	> 79 µM	> 79 µM
COc1ccc2c(c1OC)C(=O)N1c3ccccc3C(=O)N(Cc3ccccc3)C21 (centres undefined)	10.2 µM	3.57 µM	4.36 µM	13.8 µM	18.9 µM	> 79 µM	> 79 µM	> 79 µM	> 79 µM	> 79 µM	–	44.9 µM	49.1 µM	> 79 µM	> 79 µM	–	3.56 µM	4.07 µM	> 79 µM	> 79 µM
COc1cc(-c2cc(C(=O)Nc3cccc(C(=O)NC4CC4)c3)c3ccccc3n2)cc(OC)c1OC	6.39 µM	3.71 µM	4.41 µM	7.05 µM	10.4 µM	6.68 µM	4.24 µM	4.83 µM	7.07 µM	10.6 µM	19.6 µM	19.4 µM	21 µM	18.4 µM	19.8 µM	2.51 µM	2 µM	2.73 µM	2.22 µM	3.11 µM
CCOC(=O)c1ccc(NC(=O)c2cc(-c3cc(OC)c(OC)c(OC)c3)nc3ccccc23)cc1	> 79 µM	> 79 µM	> 79 µM	> 79 µM	> 79 µM	> 79 µM	> 79 µM	> 79 µM	> 79 µM	> 79 µM	> 79 µM	> 79 µM	> 79 µM	> 79 µM	> 79 µM	–	> 79 µM	21.5 µM	> 79 µM	> 79 µM
COc1ccc2c(c1OC)C(=O)N1c3ccccc3C(=O)N(Cc3cccc(C)c3)C21 (centres undefined)	10.6 µM	7.52 µM	8.41 µM	12 µM	14.6 µM	> 79 µM	> 79 µM	> 79 µM	> 79 µM	> 79 µM	> 79 µM	> 79 µM	> 79 µM	> 79 µM	> 79 µM	–	5.63 µM	6 µM	> 79 µM	> 79 µM
